These compounds were tested against human RIP1 kinase domain (2-375) (Homo sapiens (Human), UniProt Q13546) (assay: biochemical). Settings: Table 5; apparent Ki (Morrison tight-binding fit); 50 nM RIP1 kinase domain, 50 uM ATP, 2 hours incubation; read-out: Ki.
Type: biochemical
Protocol: Example 794: RIP1 Kinase Inhibition Assays (Biochemical Assay)
The compounds of the present invention were tested for their capacity to inhibit RIP1K activity as described below.
The ability of the receptor interacting protein kinase (RIPK1) to catalyze the hydrolysis of adenosine-5′-triphosphate (ATP) is monitored using the Transcreener ADP (adenosine-5′-diphosphate) assay (BellBrook Labs). Purified human RIP1 kinase domain (2-375) (50 nM) derived from a baculovirus-infected insect cell expression system is incubated with test compounds for 2 hours in 50 mM Hepes buffer (pH 7.5) containing 30 mM MgCl2, 1 mM dithiothreitol, 50 uM ATP, 0.002% Brij-35, and 0.5% dimethyl sulfoxide (DMSO). […] The tracer bound to the antibody is displaced by the ADP generated during the RIP1K reaction, which causes a decrease in fluorescence polarization that is measured by laser excitation at 633 nm with a FP microplate reader M1000. Fractional activity was plotted against test article concentration. Using Genedata Screener software (Genedata; Basel, Switzerland), the data were fit to the tight-binding apparent inhibition constant (Ki^app) Morrison equation [Williams, J. W. and Morrison, J. F. (1979) The kinetics of reversible tight-binding inhibition. Methods Enzymol 63: 437-67]. The following equation was used to calculate fractional activity and Ki^app:
[formula] where [E]T and [I]T are the total concentrations of active enzyme and test article, respectively.
“Method” in the first column of each table refers to the synthetic method(s) used to prepare each compound as shown in the Examples above. In certain examples, chiral column retention times (min) are provided for certain stereoisomers.

Sequence of human RIP1 kinase domain (2-375) (Q13546 2-375): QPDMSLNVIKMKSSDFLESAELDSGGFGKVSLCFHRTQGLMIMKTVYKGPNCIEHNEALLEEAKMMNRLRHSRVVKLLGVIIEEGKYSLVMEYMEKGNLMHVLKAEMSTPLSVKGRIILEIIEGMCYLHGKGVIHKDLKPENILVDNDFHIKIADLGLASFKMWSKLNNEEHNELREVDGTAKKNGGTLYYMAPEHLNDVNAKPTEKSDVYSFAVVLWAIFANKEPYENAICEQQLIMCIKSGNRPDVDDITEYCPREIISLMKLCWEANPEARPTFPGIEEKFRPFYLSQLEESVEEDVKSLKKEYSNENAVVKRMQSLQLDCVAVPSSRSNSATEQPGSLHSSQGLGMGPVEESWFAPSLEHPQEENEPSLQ

For `CC(C)Cn1cc(-c2cc3n(n2)CCC(NC(=O)c2ncn(Cc4ccccc4)n2)C(=O)N3C)cn1` (racemic) [Example 699, 1-benzyl-N-[2-(1-isobutylpyrazol-4-yl)-4-methyl-5-oxo-7,8-dihydro-6H-pyrazolo[1,5-a][1,3]diazepin-6-yl]-1,2,4-triazole-3-carboxamide], which Ki is on record?
Its Ki is 53 nM.

How did the Ki turn out when `CN1C(=O)[C@@H](NC(=O)c2cc3c(Br)cccc3cn2)CCn2nccc21` (racemic) [Example 700, 5-bromo-N-[rac-(6S)-4-methyl-5-oxo-7,8-dihydro-6H-pyrazolo[1,5-a][1,3]diazepin-6-yl]isoquinoline-3-carboxamide] was run?
The Ki was 448 nM.

Which Ki does the source give for `Cc1cc2n(n1)CC[C@H](NC(=O)c1cc3c(Br)cccc3cn1)C(=O)N2C` (racemic) [Example 701, 5-bromo-N-[rac-(6S)-2,4-dimethyl-5-oxo-7,8-dihydro-6H-pyrazolo[1,5-a][1,3]diazepin-6-yl]isoquinoline-3-carboxamide] here?
The Ki was 618 nM.

How did the Ki turn out when `Cc1cc2n(n1)CC[C@H](NC(=O)c1cc3c(-c4ccccc4)cccc3cn1)C(=O)N2C` (racemic) [Example 702, 5-phenyl-N-[rac-(6S)-2,4-dimethyl-5-oxo-7,8-dihydro-6H-pyrazolo[1,5-a][1,3]diazepin-6-yl]isoquinoline-3-carboxamide] was run?
The Ki was 33 nM.

How did the Ki turn out when `CN1C(=O)[C@@H](NC(=O)c2cc3c(-c4ccccc4)cccc3cn2)CCn2nccc21` (racemic) [Example 703, 5-phenyl-N-[rac-(6S)-4-methyl-5-oxo-7,8-dihydro-6H-pyrazolo[1,5-a][1,3]diazepin-6-yl]isoquinoline-3-carboxamide] was run?
Its Ki is 24 nM.

How did the Ki turn out when `CCn1ccc(-c2cc3n(n2)CCC(NC(=O)c2ncn(Cc4ccccc4)n2)C(=O)N3C)n1` (racemic) [Example 704, 1-benzyl-N-[2-(1-ethylpyrazol-3-yl)-4-methyl-5-oxo-7,8-dihydro-6H-pyrazolo[1,5-a][1,3]diazepin-6-yl]-1,2,4-triazole-3-carboxamide] was run?
The Ki was 95 nM.

Same assay, conditions: tight-binding apparent inhibition constant; human RIP1 kinase domain (2-375) 50 nM, 50 uM ATP, 2 hours; read-out: Ki

How did the Ki turn out when `C[C@@H](c1ccc(F)cc1)n1cnc(C(=O)N[C@H]2CCn3nc(C4CC4)cc3N(C)C2=O)n1` (racemic) [Example 670, N-[rac-(6S)-2-cyclopropyl-4-methyl-5-oxo-7,8-dihydro-6H-pyrazolo[1,5-a][1,3]diazepin-6-yl]-1-[rac-(1S)-1-(4-fluorophenyl)ethyl]-1,2,4-triazole-3-carboxamide] was run?
Its Ki is 26.6 nM.

Which Ki does the source give for `CN1C(=O)[C@@H](NC(=O)c2nnc(Cc3ccccc3)[nH]2)CCn2nc([C@H]3CC3(F)F)cc21` (racemic) [Example 672, 5-benzyl-N-[rac-(6S)-4-methyl-5-oxo-2-[rac-(1R)-2,2-difluorocyclopropyl]-7,8-dihydro-6H-pyrazolo[1,5-a] [1,3]diazepin-6-yl]-4H-1,2,4-triazole-3-carboxamide] here?
The Ki was 56 nM.

How did the Ki turn out when `CN1C(=O)[C@H](NC(=O)c2nnc(Cc3ccccc3)[nH]2)CCn2nc([C@H]3CC3(F)F)cc21` (racemic) [Example 673, 5-benzyl-N-[rac-(6R)-4-methyl-5-oxo-2-[rac-(1R)-2,2-difluorocyclopropyl]-7,8-dihydro-6H-pyrazolo[1,5-a] [1,3]diazepin-6-yl]-4H-1,2,4-triazole-3-carboxamide] was run?
Its Ki is 41.2 nM.

Which Ki does the source give for `CN1C(=O)[C@H](NC(=O)c2ncn(Cc3ccccc3)n2)CCn2nc([C@H]3CC3(F)F)cc21` (racemic) [Example 674, 1-benzyl-N-[rac-(6R)-4-methyl-5-oxo-2-[rac-(1R)-2,2-difluorocyclopropyl]-7,8-dihydro-6H-pyrazolo[1,5-a] [1,3]diazepin-6-yl]-1,2,4-triazole-3-carboxamide] here?
The Ki was 3980 nM.

`C[C@H](c1ccc(F)cc1)n1cnc(C(=O)N[C@H]2CCn3nc(C4CC4)cc3N(C)C2=O)n1` (racemic) [Example 676, N-[rac-(6S)-2-cyclopropyl-4-methyl-5-oxo-7,8-dihydro-6H-pyrazolo[1,5-a][1,3]diazepin-6-yl]-1-[rac-(1R)-1-(4-fluorophenypethyl]-1,2,4-triazole-3-carboxamide] was tested. Which Ki did it give?
Its Ki is 3100 nM.

For `CN1C(=O)[C@@H](NC(=O)c2ncn(Cc3ccc(Cl)cc3)n2)CCn2nc(C3CC3)cc21` (racemic) [Example 677, 1-[(4-chlorophenyl)methyl]-N-[rac-(6S)-2-cyclopropyl-4-methyl-5-oxo-7,8-dihydro-6H-pyrazolo[1,5-a][1,3]diazepin-6-yl]-1,2,4-triazole-3-carboxamide], which Ki is on record?
The Ki was 7.58 nM.

Which Ki does the source give for `CCC[C@@]1(C)OCc2cnc(C(=O)N[C@H]3COc4ccccc4N(C)C3=O)nc21` (racemic) [Example 684, rac-(7R)-7-methyl-7-propyl-N-[rao-(3S)-5-methyl-4-oxo-2,3-dihydro-1,5-benzoxazepin-3-yl]-5H-furo[3,4-d]pyrimidine-2-carboxamide] here?
The Ki was 163 nM.

How did the Ki turn out when `CC[C@]1(C)OCc2cnc(C(=O)N[C@H]3COc4ccccc4N(C)C3=O)nc21` (racemic) [Example 685, rac-(7S)-7-ethyl-7-methyl-N-[rac-(3S)-5-methyl-4-oxo-2,3-dihydro-1,5-benzoxazepin-3-yl]-5H-furo[3,4-d] pyrimidine-2-carboxamide] was run?
The Ki was 21.4 nM.

How did the Ki turn out when `Cc1cc2n(n1)CC[C@H](NC(=O)c1ncc3c(n1)[C@@](C)(CC(F)(F)F)OC3)C(=O)N2C` (racemic) [Example 686, rac-(7R)-7-methyl-N-[rac-(6S)-2,4-dimethyl-5-oxo-7,8-dihydro-6H-pyrazolo[1,5-a][1,3]diazepin-6-yl]-7-(2,2,2-trifluoroethyl)-5H-furo[3,4-d]pyrimidine-2-carboxamide] was run?
The Ki was 1100 nM.

`CC[C@@]1(C)OCc2cnc(C(=O)N[C@H]3CCn4nc(C)cc4N(C)C3=O)nc21` (racemic) [Example 687, rac-(7R)-7-ethyl-7-methyl-N-[rac-(6S)-2,4-dimethyl-5-oxo-7,8-dihydro-6H-pyrazolo[1,5-a][1,3]diazepin-6-yl]-5H-furo[3,4-d]pyrimidine-2-carboxamide] was tested. Which Ki did it give?
Its Ki is 251 nM.

For `CN1C(=O)[C@@H](NC(=O)c2ncc3c(n2)[C@](C)(CC(F)(F)F)OC3)COc2ccccc21` (racemic) [Example 688, rac-(7S)-7-methyl-N-[rac-(3 S)-5-methyl-4-oxo-2,3-dihydro-1,5-benzoxazepin-3-yl]-7-(2,2,2-trifluoroethyl)-5H-furo[3,4-d]pyrimidine-2-carboxamide], which Ki is on record?
The Ki was 43.7 nM.

How did the Ki turn out when `Cc1cc2n(n1)CC[C@H](NC(=O)c1ncc3c(n1)[C@](C)(CC(F)(F)F)OC3)C(=O)N2C` (racemic) [Example 689, rac-(75)-7-methyl-N-[rac-(6S)-2,4-dimethyl-5-oxo-7,8-dihydro-6H-pyrazolo[1,5-a][1,3diazepin-6-yl]-7-(2,2,2-trifluoroethyl)-5H-furo[3,4-d]pyrimidine-2-carboxamide] was run?
The Ki was 176 nM.

`CC[C@]1(C)OCc2cnc(C(=O)N[C@H]3CCn4nc(C)cc4N(C)C3=O)nc21` (racemic) [Example 690, rac-(7S)-7-ethyl-7-methyl-N-[rac-(6S)-2,4-dimethyl-5-oxo-7,8-dihydro-6H-pyrazolo [1,5-a][1,3]diapepin-6-yl]-5H-furo[3,4-d]pyrimidine-2-carboxamide] was tested. Which Ki did it give?
Its Ki is 1180 nM.

`CN1C(=O)[C@@H](NC(=O)c2ncc3c(n2)[C@@](C)(CC(F)(F)F)OC3)COc2ccccc21` (racemic) [Example 691, rac-(7R)-7-methyl-N-[rac-(3S)-5-methyl-4-oxo-2,3-dihydro-1,5-benzoxazepin-3-yl]-7-(2,2,2-trifluoroethyl)-5H-furo[3,4-d]pyrimidine-2-carboxamide] was tested. Which Ki did it give?
Its Ki is 22.8 nM.

With `CN1C(=O)[C@@H](NC(=O)c2ncc3c(n2)[C@@]2(CCCOC2)OC3)COc2ccccc21` (racemic) [Example 692, rac-(7R)-N-[rac-(3S)-5-methyl-4-oxo-2,3-dihydro-1,5-benzoxazepin-3-yl]spiro[5H-furo[3,4-d]pyrimidine-7,3′-tetrahydropyran]-2-carboxamide] as the compound, how does the Ki read?
The Ki was 113 nM.

Which Ki does the source give for `Cc1cn2c(n1)N(C)C(=O)[C@H](NC(=O)c1ncn(Cc3ccccc3)n1)CC2` (racemic) [Example 693, 1-benzyl-N-[rac-(7R)-2,9-dimethyl-8-oxo-6,7-dihydro-5H-imidazo[1,2-a][1,3]diazepin-7-yl]-1,2,4-triazole-3-carboxamide] here?
The Ki was 30.5 nM.

How did the Ki turn out when `CN1C(=O)[C@@H](NC(=O)c2ncc3c(n2)[C@]2(CCOC2)OC3)COc2ccccc21` (racemic) [Example 694, rac-(7S)-N-[rac-(3S)-5-methyl-4-oxo-2,3-dihydro-1,5-benzoxazepin-3-yl]spiro[5H-furo[3,4-d]pyrimidine-7,3′-tetrahydrofuran]-2-carboxamide] was run?
The Ki was 172 nM.

With `CN1C(=O)[C@@H](NC(=O)c2nc3n(n2)CCO[C@H]3c2ccccc2)COc2ccccc21` (racemic) [Example 695, rac-(8S)-8-phenyl-N-[rac-(3S)-5-methyl-4-oxo-2,3-dihydro-1,5-benzoxazepin-3-yl]-6,8-dihydro-5H-[1,2,4] triazolo[5,1-c][1,4]oxazine-2-carboxamide] as the compound, how does the Ki read?
The Ki was 694 nM.

With `CN1C(=O)[C@@H](NC(=O)c2ncc3c(n2)[C@]2(CCCOC2)OC3)COc2ccccc21` (racemic) [Example 696, rac-(75)-N-[rac-(3S)-5-methyl-4-oxo-2,3-dihydro-1,5-benzoxazepin-3-yl]spiro[5H-furo[3,4-d]pyrimidine-7,3′-tetrahydropyran]-2-carboxamide] as the compound, how does the Ki read?
The Ki was 120 nM.
